# Values of other authors, collected in patent US10335495B2, “Biomolecule conjugates” (CELGENE CORPORATION, priority 2014, dated 2019).
# Conditions: versus methotrexate, daunorubicin, and vincristine
compound,measurement,value
COc1cc2cc(c1Cl)N(C)C(=O)C[C@H](OC(=O)[C@H](C)N(C)C(C)=O)[C@]1(C)O[C@H]1[C@H](C)[C@@H]1C[C@@](O)(NC(=O)O1)[C@H](OC)/C=C/C=C(\C)C2 [Maytansine],more cytotoxic than conventional cancer chemotherapeutic agents,100- to 1000 fold
